Measurements from US12495798B2, “Nicotinamide compound and herbicidal composition comprising compound” (KOREA RESEARCH INSTITUTE OF CHEMICAL TECHNOLOGY, priority 2019, dated 2025).

Key:
Format in all cases: in vivo
sorghum [1] = experiment: Herbicidal activity test against upland field weeds (foliar treatment test); design: key to Foliar treatment herbicidal activity, Sorghum: 0 (no control); 100 (complete control); details: 50 g ai/ha, scale 0-100; for plant injury at 50 g/ha: Sorghum
Procedure, shortened: (§1)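 Greenhouse-grown plants (30±5 °C, 14/10 h light/dark) foliar hand-sprayed with compound in 50% acetone, 0.1% Tween-20 at 50 or 75 g a.i./ha. Control visually scored 0 (none) to 100 (complete) versus untreated after 14 days, or 21 days if needed.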

quack grass = experiment: as above; design: key to Foliar treatment herbicidal activity, quack grass: 0 (no control); 100 (complete control); details: 50 g ai/ha, scale 0-100
Procedure, shortened: as §1

crabgrass [2] = experiment: as above; design: key to Foliar treatment herbicidal activity, Crabgrass: 0 (no control); 100 (complete control); details: 50 g ai/ha, scale 0-100; for pest or weed control at 50 g/ha: Digitaria sanguinalis
Procedure, shortened: as §1

bindweed = experiment: as above; details: 50 g ai/ha, scale 0-100
Procedure, shortened: as §1

sorghum [3] = experiment: Herbicidal activity test against upland field weeds (soil treatment test); design: key to Soil treatment herbicidal activity, Sorghum: 0 (no control); 100 (complete control); details: 50 g ai/ha, scale 0 (no control) to 100 (complete control)
Procedure, shortened: (§2)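 Pre-emergence soil surface spray, day after sowing, into sandy loam pots with fertilizer; compounds at 50 or 75 g a.i./ha in 50% acetone, 0.1% Tween-20. Greenhouse at 30±5 °C, 14/10 h light/dark; visual control rated 0–100 against untreated after 14 days (21 if needed).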

crabgrass [4] = experiment: as above; design: key to Soil treatment herbicidal activity, Crabgrass: 0 (no control); 100 (complete control); details: 50 g ai/ha, scale 0 (no control) to 100 (complete control); for pest or weed control at 50 g/ha: Digitaria sanguinalis
Procedure, shortened: as §2

fall panicum = experiment: as above; design: key to Soil treatment herbicidal activity, Fall panicum: 0 (no control); 100 (complete control); details: 50 g ai/ha, scale 0 (no control) to 100 (complete control); for pest or weed control at 50 g/ha: Panicum dichotomiflorum
Procedure, shortened: as §2

indian jointvetch = experiment: as above; design: key to Soil treatment herbicidal activity, Indian jointvetch: 0 (no control); 100 (complete control); details: 50 g ai/ha, scale 0 (no control) to 100 (complete control)
Procedure, shortened: as §2

cocklebur = experiment: as above; design: key to Soil treatment herbicidal activity, Cocklebur: 0 (no control); 100 (complete control); details: 50 g ai/ha, scale 0 (no control) to 100 (complete control)
Procedure, shortened: as §2

corn = experiment: Phytotoxicity test for field crops (soil treatment test); design: key: 0 (no harm); 9 (complete withered)
Procedure, shortened: (§3)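 Pre-emergence soil spray one day after sowing in sterilized horticultural soil (pH 6.1, organic matter 1.0%), test compounds diluted in 33% acetone/0.1% Tween-20 to 19˜300 g a.i./ha. Greenhouse at 30±5° C, 14/10 h light/dark. Phytotoxicity scored visually 10 and 20 days after treatment on a 0 (no harm) to 9 (complete withered) scale versus untreated control.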

cotton = experiment: as above; design: key: 0 (no harm); 9 (complete withered)
Procedure, shortened: as §3

rice = experiment: as above; design: key: 0 (no harm); 9 (complete withered)
Procedure, shortened: as §3

soybean = experiment: as above; design: key: 0 (no harm); 9 (complete withered)
Procedure, shortened: as §3

wheat = experiment: as above; design: key: 0 (no harm); 9 (complete withered)
Procedure, shortened: as §3

[5] = 50 g ai/ha, Corn (10 days after treatment)
[6] = 50 g ai/ha, Corn (20 days after treatment)
[7] = 100 g ai/ha, Corn (10 days after treatment)
[8] = 100 g ai/ha, Corn (20 days after treatment)
[9] = 50 g ai/ha, Cotton (10 days after treatment)
[10] = 50 g ai/ha, Cotton (20 days after treatment)
[11] = 100 g ai/ha, Cotton (10 days after treatment)
[12] = 100 g ai/ha, Cotton (20 days after treatment)
[13] = 50 g ai/ha, Rice (10 days after treatment)
[14] = 50 g ai/ha, Rice (20 days after treatment)
[15] = 100 g ai/ha, Rice (10 days after treatment)
[16] = 100 g ai/ha, Rice (20 days after treatment)
[17] = 50 g ai/ha, Soybean (10 days after treatment)
[18] = 50 g ai/ha, Soybean (20 days after treatment)
[19] = 100 g ai/ha, Soybean (10 days after treatment)
[20] = 100 g ai/ha, Soybean (20 days after treatment)
[21] = 50 g ai/ha, Wheat (10 days after treatment)
[22] = 50 g ai/ha, Wheat (20 days after treatment)
[23] = 100 g ai/ha, Wheat (10 days after treatment)
[24] = 100 g ai/ha, Wheat (20 days after treatment)

Structure (SMILES) | Soil treatment herbicidal activity, Cocklebur (cocklebur) | Soil treatment phytotoxicity, Corn (corn; [5]) | Soil treatment phytotoxicity, Corn (corn; [6]) | Soil treatment phytotoxicity, Corn (corn; [7]) | Soil treatment phytotoxicity, Corn (corn; [8]) | Soil treatment phytotoxicity, Cotton (cotton; [9]) | Soil treatment phytotoxicity, Cotton (cotton; [10]) | Soil treatment phytotoxicity, Cotton (cotton; [11]) | Soil treatment phytotoxicity, Cotton (cotton; [12]) | Soil treatment phytotoxicity, Rice (rice; [13]) | Soil treatment phytotoxicity, Rice (rice; [14]) | Soil treatment phytotoxicity, Rice (rice; [15]) | Soil treatment phytotoxicity, Rice (rice; [16]) | Soil treatment phytotoxicity, Soybean (soybean; [17]) | Soil treatment phytotoxicity, Soybean (soybean; [18]) | Soil treatment phytotoxicity, Soybean (soybean; [19]) | Soil treatment phytotoxicity, Soybean (soybean; [20]) | Soil treatment phytotoxicity, Wheat (wheat; [21]) | Soil treatment phytotoxicity, Wheat (wheat; [22]) | Soil treatment phytotoxicity, Wheat (wheat; [23]) | other results
Cn1nnc(COCc2nc(C(F)F)ccc2C(=O)Nc2nnnn2C)n1 [Compound No. 2-84, 6-(difluoromethyl)-N-(1-methyl-1H-tetrazol-5-yl)-2-(((2-methyl-2H-tetrazol-5-yl)methoxy)methyl)nicotinamide] | 0 | 0 | 0 | 1 | 0 | 0 | 6 | 3 | 7 | 5 | 3 | 6 | 7 | 0 | 0 | 0 | 0 | 0 | 0 | 0 | plant injury at 50 g/ha (sorghum [1]): 90%; Foliar treatment herbicidal activity, quack grass (quack grass): 0; pest or weed control at 50 g/ha (crabgrass [2]): 95%; pest or weed control at 50 g/ha (bindweed): 60%; plant injury at 50 g/ha (sorghum [3]; Sorghum): 20%; pest or weed control at 50 g/ha (crabgrass [4]): 80%; pest or weed control at 50 g/ha (fall panicum): 20%; pest or weed control at 50 g/ha (indian jointvetch): 98%
Cn1nnnc1COc1nc(C(F)(F)F)ccc1C(=S)Nc1nnnn1C [Compound No. 1-43, N-(1-methyl-1H-tetrazol-5-yl)-2-((1-methyl-1H-tetrazol-5-yl)methoxy)-6-(trifluoromethyl)pyridin-3-carbothioamide] | 0 | 0 | 0 | 1 | 0 | 0 | 1 | 1 | 2 | 5 | 5 | 7 | 9 | 0 | 0 | 0 | 0 | 0 | 0 | 3 | plant injury at 50 g/ha (sorghum [1]): 60%; pest or weed control at 50 g/ha (quack grass): 30%; pest or weed control at 50 g/ha (crabgrass [2]): 95%; pest or weed control at 50 g/ha (bindweed): 70%; Soil treatment herbicidal activity, Sorghum (sorghum [3]): 0; pest or weed control at 50 g/ha (crabgrass [4]): 20%; Soil treatment herbicidal activity, Fall panicum (fall panicum): 0; Soil treatment herbicidal activity, Indian jointvetch (indian jointvetch): 0; Soil treatment phytotoxicity, Wheat (wheat; [24]): 3
Cn1nnc(COc2nc(C(F)(F)F)ccc2C(=O)Nc2nnnn2C)n1 [Compound No. 2-1, N-(1-methyl-1H-tetrazol-5-yl)-2-((2-methyl-2H-tetrazol-5-yl)methoxy)-6-(trifluoromethyl)nicotinamide] | 0 | 0 | 0 | 0 | 0 | 1 | 2 | 4 | 7 | 3 | 3 | 5 | 5 | – | – | – | – | 0 | 0 | 0 | Foliar treatment herbicidal activity, Sorghum (sorghum [1]): 0; Foliar treatment herbicidal activity, quack grass (quack grass): 0; pest or weed control at 50 g/ha (crabgrass [2]): 95%; pest or weed control at 50 g/ha (bindweed): 60%; Soil treatment herbicidal activity, Sorghum (sorghum [3]): 0; Soil treatment herbicidal activity, Crabgrass (crabgrass [4]): 0; Soil treatment herbicidal activity, Fall panicum (fall panicum): 0; Soil treatment herbicidal activity, Indian jointvetch (indian jointvetch): 0; Soil treatment phytotoxicity, Wheat (wheat; [24]): 0
Cn1cnc(COCc2nc(C(F)F)ccc2C(=O)Nc2nnnn2C)n1 [Compound No. 2-85] | 25 | 0 | 0 | 0 | 0 | 0 | 0 | 2 | 0 | 0 | 0 | 1 | 0 | 2 | 0 | 3 | 0 | 0 | 0 | 0 | Foliar treatment herbicidal activity, Sorghum (sorghum [1]): 5; Foliar treatment herbicidal activity, Crabgrass (crabgrass [2]): 60; Foliar treatment herbicidal activity, Bindweed (bindweed): 99; Soil treatment herbicidal activity, Sorghum (sorghum [3]): 0; Soil treatment herbicidal activity, Crabgrass (crabgrass [4]): 0; Soil treatment herbicidal activity, Fall panicum (fall panicum): 20; Soil treatment herbicidal activity, Indian jointvetch (indian jointvetch): 55; Soil treatment phytotoxicity, Wheat (wheat; [24]): 0
Cn1nnnc1COc1nc(C(F)(F)F)ccc1C(=O)Nc1nnnn1C [Compound No. 1-1, N-(1-methyl-1H-tetrazol-5-yl)-2-((1-methyl-1H-tetrazol-5-yl)methoxy)-6-(trifluoromethyl)nicotinamide] | 0 | 0 | 0 | 0 | 0 | 2 | 6 | 2 | 7 | 1 | 7 | 3 | 9 | 3 | 5 | 3 | 7 | 0 | 0 | 0 | plant injury at 50 g/ha (sorghum [1]): 70%; Foliar treatment herbicidal activity, quack grass (quack grass): 0; Foliar treatment herbicidal activity, Crabgrass (crabgrass [2]): 100; Soil treatment herbicidal activity, Sorghum (sorghum [3]): 0; pest or weed control at 50 g/ha (crabgrass [4]): 98%; pest or weed control at 50 g/ha (fall panicum): 98%; Soil treatment herbicidal activity, Indian jointvetch (indian jointvetch): 0; Soil treatment phytotoxicity, Wheat (wheat; [24]): 1
